In patent US11440907B1 (Merck Patent GmbH, priority 2018, dated 2022):

Columns and labels:
[1] = system: β-catenin-TCF-mediated reporter transcription activity in Colo 205 cells; assay: Colo 205 reporter assay (TCF/LEF promoter-driven firefly luciferase); format: cell-based; settings: Homo sapiens; Colo 205 TCF/LEF luciferase reporter, 5 hours after compound addition, 384 well; read-out: Colo205 IC50
[2] = system: XBP1(u)-luciferase splicing reporter in HepG2 hepatoma cells; assay: HepG2 XBP1 reporter assay (XBP1(u)-Luc); format: cell-based; settings: Homo sapiens, 6 hours after compound addition; for EC50: Table 3, read-out: XBP1-luc HepG2 1 EC50; for IC50: Table 4
[3] = system: intracellular calcium flux in Colo-205 cells; assay: Calcium flux assay (FLIPR Calcium 5 Assay Kit, FLIPR3); format: cell-based; settings: Homo sapiens, 0.6 h, calcium flux measured over 36 minutes, read-out: Colo 205 Calcium Flux assay 384w Boston Ca assay FLIPR3 Colo EC50
Experimental: Compounds described herein induced ER stress by causing intracellular calcium flux. Calcium flux was measured in Colo-205 cells using the FLIPR® Calcium 5 Assay Kit according to manufacturer's protocol (Molecular Devices, Cat. #R8186) on a FLIPR3 system (Molecular Devices). Calcium flux is measured over 36 minutes. The Colo-205 calcium flux assay data are summarized in Table 3: A<0.6 μM; 0.6 μM≤B<2.0 μM; 2.0 μM≤C<10.0 μM; D≥10.0 μM.

[4] = system: NCI-H929 (Multiple myeloma cells); assay: Cell viability (ATPLite) in NCI-H929; format: cell-based; settings: Homo sapiens, 96 hours
Procedure, shortened: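 Cells were seeded at 500/well and, after 24 h, treated with compound at 100 nM or 2 uM for 0 or 96 hours. Viability was measured by ATPLite cellular ATP read-out.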

[5] = system: DU4475 (breast cancer cells); assay: Cell viability (ATPLite) in DU4475; format: cell-based; settings: Homo sapiens, DU-4475, 96 hours
Experimental: Cells were removed from liquid nitrogen storage, thawed and expanded in appropriate growth media. Once expanded, cells were seeded in 384-well tissue culture treated plates at 500 cells per well. After 24 hours, cells were treated for either 0 hours or treated for 96 hours with a testing compound (at the concentrations of 100 nM and 2 uM). At the end of either 0 hours or 96 hours, cell status was analyzed using ATPLite (Perkin Elmer) to assess the biological response of cells to the testing compound.

Row | melting point [°C] | IC50 [1] [µM] | EC50 [2] [µM] | EC50 [3] [µM] | IC50 [2] [µM] | IC50 [4] [µM] | IC50 [5] [µM] | SMILES
1 | 278 to 280 | – | – | – | – | – | – | Cc1cc(N2CCCN(S(C)(=O)=O)CC2c2ccccc2Cl)nc(N)n1 (racemic) [I-28, (+/−)-4-(2-(2-chlorophenyl)-4-(methylsulfonyl)-1,4-diazepan-1-yl)-6-methylpyrimidin-2-amine]
2 | 107 to 109 | – | – | – | – | – | – | COc1cc(C2CCCCCN2c2cc(C)nc(N)n2)c(OC)cn1 (racemic) [I-116, (+/−)-4-[2-(2,5-dimethoxy-4-pyridyl)azepan-1-yl]-6-methyl-pyrimidin-2-amine]
3 | 88 to 90 | 0.3 to 1 | – | – | – | – | – | COc1ccc(Cl)c(C2CCCCCN2c2cc(C)nc(N)n2)c1 (racemic) [I-117, (+/−)-4-(2-(2-chloro-5-methoxyphenyl)azepan-1-yl)-6-methylpyrimidin-2-amine]
4 | 220 | 0.3 to 1 | – | – | – | – | – | COc1ccc(Cl)c(C2COCCCN2c2cc(C)nc(N)n2)c1 (racemic) [I-118, (+/−)-4-(3-(2-chloro-5-methoxyphenyl)-1,4-oxazepan-4-yl)-6-methylpyrimidin-2-amine]
5 | 138 to 140 | 0.3 to 1 | – | – | – | – | – | Cc1cc(N2CCCOCC2c2cc(N3CCCC3=O)ccc2Cl)nc(N)n1 (racemic) [I-119, 1-(3-(4-(2-amino-6-methylpyrimidin-4-yl)-1,4-oxazepan-3-yl)-4-chlorophenyl)pyrrolidin-2-one]
6 | 110 | 0.3 to 1 | – | – | – | – | – | Cc1cc(N2CCCOCC2c2cc(C(O)C(F)(F)F)ccc2Cl)nc(N)n1 (racemic) [I-134, (+/−)-1-(3-(4-(2-amino-6-methylpyrimidin-4-yl)-1,4-oxazepan-3-yl)-4-chlorophenyl)-2,2,2-trifluoroethan-1-ol]
7 | 95 to 97 | 0.3 to 1 | – | – | – | – | – | Cc1cc(N2CCCOCC2c2cc(NC(=O)CN(C)C)ccc2Cl)nc(N)n1 (racemic) [I-168, (+/−)-N-[3-[4-(2-amino-6-methyl-pyrimidin-4-yl)-1,4-oxazepan-3-yl]-4-chloro-phenyl]-2-(dimethylamino)acetamide]
8 | 180 | 0.3 to 1 | 0.6 to 2 | – | – | – | – | CCNc1cc(C2COCCCN2c2cc(C)nc(N)n2)c(Cl)cc1F (racemic) [I-272, (+/−)-4-[3-[2-chloro-5-(ethylamino)-4-fluoro-phenyl]-1,4-oxazepan-4-yl]-6-methyl-pyrimidin-2-amine]
9 | 188 to 190 | < 0.3 | < 0.6 | – | – | – | – | Cc1cc(N2CCCOCC2c2ccc(NC(=O)C(F)F)cc2Cl)nc(N)n1 (racemic) [I-278, (+/−)-N-(4-(4-(2-amino-6-methylpyrimidin-4-yl)-1,4-oxazepan-3-yl)-3-chlorophenyl)-2,2-difluoroacetamide]
10 | 156 to 160 | – | – | – | – | – | – | Cc1cc(N2CCCOC[C@H]2c2ccccc2Cl)nc(N)n1 (single isomer, unassigned) [I-30]
11 | 220 | – | – | – | – | – | – | Cc1cc(N2CCCOC[C@H]2c2ccc(C#N)cc2Cl)nc(N)n1 (single isomer, unassigned) [I-96]
12 | 120 | – | – | – | – | – | – | Cc1cc(N2CCCOC[C@@H]2c2cc(S(C)(=O)=O)ccc2Cl)nc(N)n1 (single isomer, unassigned) [I-103]
13 | 160 | < 0.3 | < 0.6 | – | – | – | – | Cc1cc(N2CCCOC[C@@H]2c2cc(NS(C)(=O)=O)ccc2Cl)nc(N)n1 (single isomer, unassigned) [I-161]
14 | 100 to 102 | 0.3 to 1 | < 0.6 | < 0.6 | – | – | – | Cc1cc(N2CCCOC[C@@H]2c2ccc(Br)cc2Cl)nc(N)n1 (single isomer, unassigned) [I-201]
15 | – | – | – | – | 0.6 to 2 | 1 to 10 | 1 to 10 | Cc1cc(N2CCCOCC2c2cc(F)c(F)cc2Cl)nc(N)n1 (stereo not shown) [C-4]
16 | – | – | – | – | < 0.6 | < 1 | < 1 | Cc1cc(N2CCCOCC2c2cc3c(cc2Cl)OCC(=O)N3)nc(N)n1 (stereo not shown) [C-5]
17 | – | – | – | – | 0.6 to 2 | 1 to 10 | < 1 | Cc1cc(N2CCCOCC2c2cc3c(cc2Cl)OCCO3)nc(N)n1 (stereo not shown) [C-6]
18 | – | – | – | – | 0.6 to 2 | 1 to 10 | 1 to 10 | Cc1cc(N2CCCOCC2c2cc(Cl)c(O)cc2Cl)nc(N)n1 (stereo not shown) [C-7]
19 | – | – | – | – | 0.6 to 2 | < 1 | < 1 | Cc1cc(N2CCCOCC2c2ccc(CS(C)(=O)=O)cc2F)nc(N)n1 (stereo not shown) [C-11, 4-[3-(2-Fluoro-4-methanesulfonylmethyl-phenyl)-[1,4]oxazepan-4-yl]-6-methyl-pyrimidin-2-ylamine]
20 | – | – | – | – | 0.6 to 2 | 1 to 10 | < 1 | Cc1cc(N2CCCOCC2c2cc(CS(C)(=O)=O)ccc2Cl)nc(N)n1 (stereo not shown) [C-12, 4-[3-(2-Chloro-5-methanesulfonylmethyl-phenyl)-[1,4]oxazepan-4-yl]-6-methyl-pyrimidin-2-ylamine]
21 | – | – | – | – | < 0.6 | 1 to 10 | < 1 | Cc1cc(N2CCCOCC2c2cc3c(cc2Cl)OCCCO3)nc(N)n1 (stereo not shown) [C-13]
22 | – | – | – | – | 0.6 to 2 | 1 to 10 | < 1 | COc1cc(C2COCCCN2c2cc(C)nc(N)n2)c(Cl)cc1O (stereo not shown) [C-14]

Row | melting point [°C] | IC50 [1] [µM] | EC50 [2] [µM] | EC50 [3] [µM] | IC50 [2] [µM] | IC50 [4] [µM] | IC50 [5] [µM] | SMILES
23 | – | – | – | – | 0.6 to 2 | < 1 | < 1 | COc1cc(Cl)c(C2COCCCN2c2cc(C)nc(N)n2)cc1OC (stereo not shown) [C-15]
24 | – | – | – | – | < 0.6 | < 1 | < 1 | Cc1cc(N2CCCOCC2c2cc(C)c(N)cc2Cl)nc(N)n1 (stereo not shown) [C-16]
25 | – | – | – | – | 2 to 5 | 1 to 10 | 1 to 10 | Cc1cc(N2CCCOCC2c2cc(F)c(Cl)cc2Cl)nc(N)n1 (stereo not shown) [C-18]
26 | – | – | – | – | 0.6 to 2 | 1 to 10 | < 1 | COc1cc(Cl)c(C2COCCCN2c2cc(C)nc(N)n2)cc1Cl (stereo not shown) [C-19]
27 | – | – | – | – | < 0.6 | < 1 | < 1 | Cc1cc(N2CCCOCC2c2cc3c(cc2Cl)n(C)c(=O)n3C)nc(N)n1 (stereo not shown) [C-20]
28 | – | – | – | – | < 0.6 | < 1 | < 1 | CCNc1cc(Cl)c(C2COCCCN2c2cc(C)nc(N)n2)cc1C (stereo not shown) [C-21]
29 | – | – | – | – | < 0.6 | < 1 | < 1 | CCOc1cc(Cl)c(C2COCCCN2c2cc(C)nc(N)n2)cc1OC (stereo not shown) [C-23]
30 | – | – | – | – | < 0.6 | 1 to 10 | < 1 | COc1cc(C2COCCCN2c2cc(C)nc(N)n2)c(Cl)cc1OC(C)C (stereo not shown) [C-24]
31 | – | – | – | – | 0.6 to 2 | 1 to 10 | 1 to 10 | Cc1cc(N2CCCOCC2c2cc(F)c(O)cc2Cl)nc(N)n1 (stereo not shown) [C-30]
32 | – | – | – | – | < 0.6 | 1 to 10 | < 1 | Cc1cc(N2CCCOCC2c2cc(C(F)(F)F)c(N)cc2Cl)nc(N)n1 (stereo not shown) [C-31]
33 | – | – | – | – | < 0.6 | < 1 | < 1 | Cc1cc(N2CCCOCC2c2cc3c(cc2Cl)N(C)CC3)nc(N)n1 (stereo not shown) [C-32]
34 | – | – | – | – | ≥ 5 | 1 to 10 | 1 to 10 | Cc1cc(N2CCCOCC2c2cc(Cl)c(Cl)cc2Cl)nc(N)n1 (stereo not shown) [C-34]
35 | – | – | – | – | < 0.6 | < 1 | < 1 | Cc1cc(N2CCCOCC2c2cc3c(cc2Cl)NC(=O)CO3)nc(N)n1 (stereo not shown) [C-35]
36 | – | – | – | – | < 0.6 | < 1 | < 1 | COc1cc(Cl)c([C@H]2COCCCN2c2cc(C)nc(N)n2)cc1O [C-36]
37 | – | – | – | – | 2 to 5 | 1 to 10 | 1 to 10 | Cc1cc(N2CCCOCC2c2cc(C)c(F)cc2Cl)nc(N)n1 (stereo not shown) [C-38]
38 | – | – | – | – | 0.6 to 2 | 1 to 10 | < 1 | COc1cc(Cl)c(C2COCCCN2c2cc(C)nc(N)n2)cc1OC(C)C (stereo not shown) [C-39]
39 | – | – | – | – | < 0.6 | 1 to 10 | < 1 | CCOc1cc(Cl)c(C2COCCCN2c2cc(C)nc(N)n2)cc1OCC (stereo not shown) [C-40]
40 | – | – | – | – | < 0.6 | 10 to 25 | < 1 | CCOc1cc(Cl)c(C2COCCCN2c2cc(C)nc(N)n2)cc1Cl (stereo not shown) [C-41]
41 | – | – | – | – | 0.6 to 2 | < 1 | < 1 | Cc1cc(N2CCCOCC2c2ccc(OC[C@@H](O)CO)cc2Cl)nc(N)n1 (stereo partly drawn) [C-42, (S)-3-{4-[4-(2-Amino-6-methyl-pyrimidin-4-yl)-[1,4]oxazepan-3-yl]-3-chloro-phenoxy}-propane-1,2-diol]
42 | – | – | – | – | < 0.6 | < 1 | < 1 | Cc1cc(N2CCCOC[C@@H]2c2ccc(N3CCC(C)(O)CC3)cc2Cl)nc(N)n1 [C-151]
43 | – | – | – | – | < 0.6 | < 1 | < 1 | Cc1cc(N2CCCOC[C@@H]2c2ccc(NC3COC3)cc2Cl)nc(N)n1 [C-152]
